Patent publication US20250388553A1 (Incyte Corporation, priority 2018, published 2025)
Where a name gives a salt, the structure may show the parent alone.

Tests used:
[1] = test system: Phosphorylated Ribosomal Protein S6 (RPS6) in THP-1 cells; assay: THP-1 RPS6 ELISA assay; assay type: cell-based, Human; details: Homo sapiens; Table A4; THP-1 cells, 10 nM MCP-1, phospho-RPS6 ELISA; read-out: PI3Kγ_THP1_RPS6_ELISA IC50
[2] = molecular target: PI3Kδ (p1106/p85a) Recombinant Human Protein (Homo sapiens (Human), UniProt O00329); assay: PI3Kδ scintillation proximity assay; assay type: biochemical; details: Table A4; scintillation proximity assay, recombinant human PI3Kδ
[3] = molecular target: PI3Kγ (p110γ) Recombinant Human Protein (Homo sapiens (Human), UniProt P48736); assay: PI3K-γ scintillation proximity assay; assay type: biochemical; details: Table A4; scintillation proximity assay, recombinant human p110γ
Sequence of PI3Kγ (p110γ) Recombinant Human Protein (P48736 whole entry): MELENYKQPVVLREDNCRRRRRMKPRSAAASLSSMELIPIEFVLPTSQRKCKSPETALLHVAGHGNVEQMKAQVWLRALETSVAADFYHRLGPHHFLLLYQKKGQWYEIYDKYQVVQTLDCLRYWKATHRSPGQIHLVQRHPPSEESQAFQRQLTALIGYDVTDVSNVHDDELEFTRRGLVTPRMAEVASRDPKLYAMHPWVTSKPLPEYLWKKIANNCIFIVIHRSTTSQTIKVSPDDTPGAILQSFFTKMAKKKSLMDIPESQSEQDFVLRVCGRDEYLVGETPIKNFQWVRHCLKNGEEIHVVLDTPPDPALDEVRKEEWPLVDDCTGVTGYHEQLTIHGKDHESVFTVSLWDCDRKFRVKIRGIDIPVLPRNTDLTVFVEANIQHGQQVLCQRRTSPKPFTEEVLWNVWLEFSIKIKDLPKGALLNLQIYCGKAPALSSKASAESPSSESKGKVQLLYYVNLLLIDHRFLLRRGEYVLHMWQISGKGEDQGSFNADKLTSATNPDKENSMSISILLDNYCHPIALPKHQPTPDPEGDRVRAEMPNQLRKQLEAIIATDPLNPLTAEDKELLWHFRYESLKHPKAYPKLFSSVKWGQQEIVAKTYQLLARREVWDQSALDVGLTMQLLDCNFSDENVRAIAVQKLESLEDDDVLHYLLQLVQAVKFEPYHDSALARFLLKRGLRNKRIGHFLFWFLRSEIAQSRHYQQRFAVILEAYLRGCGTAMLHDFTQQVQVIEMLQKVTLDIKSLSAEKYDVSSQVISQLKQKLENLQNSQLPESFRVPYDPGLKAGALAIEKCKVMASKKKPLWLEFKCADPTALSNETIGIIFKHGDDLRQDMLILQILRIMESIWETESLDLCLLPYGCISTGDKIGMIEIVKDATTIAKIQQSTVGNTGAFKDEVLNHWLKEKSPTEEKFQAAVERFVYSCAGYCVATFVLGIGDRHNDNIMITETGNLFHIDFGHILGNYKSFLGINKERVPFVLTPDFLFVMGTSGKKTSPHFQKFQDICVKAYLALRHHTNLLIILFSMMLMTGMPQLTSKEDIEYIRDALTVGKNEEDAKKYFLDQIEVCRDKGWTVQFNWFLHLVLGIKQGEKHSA

Sequence of PI3Kδ (p1106/p85a) Recombinant Human Protein (O00329 whole entry): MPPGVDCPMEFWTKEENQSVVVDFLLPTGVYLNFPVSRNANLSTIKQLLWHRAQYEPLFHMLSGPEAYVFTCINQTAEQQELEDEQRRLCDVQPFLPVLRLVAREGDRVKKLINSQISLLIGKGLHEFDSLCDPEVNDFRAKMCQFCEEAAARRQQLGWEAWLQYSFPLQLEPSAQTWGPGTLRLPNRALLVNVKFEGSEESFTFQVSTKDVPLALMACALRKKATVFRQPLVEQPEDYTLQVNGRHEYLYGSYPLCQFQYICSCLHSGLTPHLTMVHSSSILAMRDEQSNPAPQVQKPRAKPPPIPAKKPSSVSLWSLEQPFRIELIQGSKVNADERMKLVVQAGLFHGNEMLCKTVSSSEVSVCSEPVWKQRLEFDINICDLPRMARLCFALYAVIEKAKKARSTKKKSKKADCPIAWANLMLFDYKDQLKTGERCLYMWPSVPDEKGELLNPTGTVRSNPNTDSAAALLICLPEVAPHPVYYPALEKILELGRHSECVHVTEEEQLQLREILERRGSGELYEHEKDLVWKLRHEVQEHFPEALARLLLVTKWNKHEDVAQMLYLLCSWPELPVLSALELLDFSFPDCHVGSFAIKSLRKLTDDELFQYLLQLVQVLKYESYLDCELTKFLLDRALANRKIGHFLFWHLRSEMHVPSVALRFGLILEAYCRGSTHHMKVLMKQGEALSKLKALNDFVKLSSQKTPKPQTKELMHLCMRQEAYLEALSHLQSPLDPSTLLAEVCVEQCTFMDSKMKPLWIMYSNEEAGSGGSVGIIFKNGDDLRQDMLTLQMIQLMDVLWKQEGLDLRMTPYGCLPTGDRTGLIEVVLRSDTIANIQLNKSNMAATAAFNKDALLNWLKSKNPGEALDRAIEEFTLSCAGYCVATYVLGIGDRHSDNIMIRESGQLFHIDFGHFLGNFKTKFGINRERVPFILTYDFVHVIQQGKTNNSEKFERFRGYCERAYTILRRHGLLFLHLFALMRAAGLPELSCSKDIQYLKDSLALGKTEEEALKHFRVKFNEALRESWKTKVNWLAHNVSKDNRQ
Sequence of PI3Kδ (p1106/p85a) Recombinant Human Protein (P27986 whole entry partner): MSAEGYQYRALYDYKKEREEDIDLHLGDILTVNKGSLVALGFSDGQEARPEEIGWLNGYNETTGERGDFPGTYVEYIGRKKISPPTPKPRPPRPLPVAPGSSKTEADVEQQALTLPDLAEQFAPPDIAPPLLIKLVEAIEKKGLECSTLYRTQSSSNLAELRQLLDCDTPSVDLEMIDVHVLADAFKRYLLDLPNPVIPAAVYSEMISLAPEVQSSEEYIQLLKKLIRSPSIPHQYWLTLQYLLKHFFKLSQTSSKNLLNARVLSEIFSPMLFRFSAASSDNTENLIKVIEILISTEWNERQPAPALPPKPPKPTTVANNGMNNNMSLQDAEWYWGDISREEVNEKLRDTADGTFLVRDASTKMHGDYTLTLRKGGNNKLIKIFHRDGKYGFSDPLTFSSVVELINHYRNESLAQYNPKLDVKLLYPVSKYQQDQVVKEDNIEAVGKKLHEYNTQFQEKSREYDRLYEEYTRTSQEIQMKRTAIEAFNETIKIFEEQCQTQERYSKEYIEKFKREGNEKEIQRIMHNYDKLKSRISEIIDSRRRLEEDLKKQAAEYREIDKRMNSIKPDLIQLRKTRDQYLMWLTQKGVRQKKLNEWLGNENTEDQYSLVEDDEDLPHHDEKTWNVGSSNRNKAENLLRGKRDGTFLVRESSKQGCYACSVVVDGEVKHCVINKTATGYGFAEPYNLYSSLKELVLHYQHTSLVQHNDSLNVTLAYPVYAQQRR

IC50 [1]: 0.5 to 1 µM | IC50 [2]: 0.1 to 0.5 µM | IC50 [3]: < 0.1 µM
Structure (SMILES): CCOc1ccccc1N1CCN(c2nc(-c3cc(C(O)(C(N)=O)C(F)(F)F)ccc3C)cnc2N)CC1 (stereo not drawn) [Example 129, 2-(3-(5-amino-6-(4-(2-ethoxyphenyl)piperazin-1-yl)pyrazin-2-yl)-4-methylphenyl)-3,3,3-trifluoro-2-hydroxypropanamide trifluoroacetate]
